Active and inactive are the calls of the source. No rule for the calls is given here. Where a SMILES comes first, the peptide text is derived from it. Bridges are numbered along the chain shown (N, C = ends). The star is where a group is joined. ξ: configuration not given here. Pentadecanoyl(3ξ-OH,15-Gua) = N=C(N)NCCCCCCCCCCCCC(O)CC(=O)*

Consider 82 compounds from PubChem BioAssay AID1645863 (Buhrlage Lab, Dana-Farber Cancer Institute and Novartis …, 2021).

Sequence of Ubiquitin carboxyl-terminal hydrolase 10 (Homo sapiens) (Q14694 whole entry, looked up): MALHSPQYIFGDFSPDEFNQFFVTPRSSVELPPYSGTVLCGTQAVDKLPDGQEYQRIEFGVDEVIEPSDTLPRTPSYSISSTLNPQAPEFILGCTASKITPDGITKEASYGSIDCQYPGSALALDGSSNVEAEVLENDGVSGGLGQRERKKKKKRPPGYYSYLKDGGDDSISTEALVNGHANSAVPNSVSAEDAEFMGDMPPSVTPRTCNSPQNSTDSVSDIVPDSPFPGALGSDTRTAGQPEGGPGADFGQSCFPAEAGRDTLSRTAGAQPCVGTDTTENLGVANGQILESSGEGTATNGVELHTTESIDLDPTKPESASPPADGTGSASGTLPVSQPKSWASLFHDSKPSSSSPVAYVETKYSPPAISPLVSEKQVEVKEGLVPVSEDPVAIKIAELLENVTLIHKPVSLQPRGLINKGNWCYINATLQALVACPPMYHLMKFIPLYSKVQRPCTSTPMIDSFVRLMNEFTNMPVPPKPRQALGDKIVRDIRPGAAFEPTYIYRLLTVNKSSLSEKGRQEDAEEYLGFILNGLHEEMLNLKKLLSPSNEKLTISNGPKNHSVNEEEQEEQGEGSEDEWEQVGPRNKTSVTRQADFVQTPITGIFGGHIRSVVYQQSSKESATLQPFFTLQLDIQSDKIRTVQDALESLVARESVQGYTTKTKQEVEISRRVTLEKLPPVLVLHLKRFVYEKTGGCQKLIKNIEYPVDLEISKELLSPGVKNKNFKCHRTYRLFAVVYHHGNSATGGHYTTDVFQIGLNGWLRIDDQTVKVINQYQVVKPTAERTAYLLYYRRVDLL

This test addresses Ubiquitin carboxyl-terminal hydrolase 10 (Homo sapiens) (UniProt Q14694). In words: primary hit verification, biochemical, ubiquitin-specific protease 10 deubiquitylase inhibitors, concentration-effect titration (AID 1645863).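 Also: potency values describe inhibition of USP10 cleavage of a fluorogenic ubiquitin substrate.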 As to conditions: USP10 deubiquitinase enzymatic assay.
What is called IC50 is the concentration that gives 50% inhibition. In the case of `COc1ccc(Cl)cc1NC(=O)Cn1c(=O)n(CCC(=O)NC2CCCC2)c(=O)c2ccccc21`, the IC50 is > 40 µM (inactive).

Turning to `CSc1cccc(NC(=O)C2C3C=CC4(O3)C2C(=O)N(CCc2ccccc2)C4C(=O)NC2CCCCC2)c1` (configuration not stated), the IC50 was > 40 µM (inactive).

On to `COC(=O)c1ccc(N2CCN(C(C)=O)CC2)c(NC(=O)COc2ccc([N+](=O)[O-])cc2)c1`, for which the half-inhibitory concentration (IC50) was 25.1 µM.

As for `COc1ccc(Cl)cc1NC(=O)c1cc(-c2ccccn2)n[nH]1`, the 50% inhibitory concentration (IC50) is 9.33 µM.

Take `Cc1cccc(C)c1NC(=O)CN1C(=O)CC(c2ccccc2)=Nc2ccccc21`: the concentration for half-maximal inhibition (IC50) is 26.4 µM.

For `O=C(Cn1c(=O)c2ccccc2n(CC(=O)Nc2cccc(F)c2)c1=O)NCCc1ccccc1`, the IC50 is 27.4 µM.

As to `Cc1cc(NC(=O)CN2CCCN(S(=O)(=O)c3ccc(F)cc3)CC2)ccc1Br`, the IC50 is > 40 µM (inactive).

In the case of `Cc1cc(NC(=O)CSc2ncc(-c3cccc([N+](=O)[O-])c3)n2-c2cccc(Cl)c2)no1`, the IC50 is > 40 µM (inactive).

Take `O=C(Cc1ccc(-n2c(=O)c3ccccc3n(Cc3cccc([N+](=O)[O-])c3)c2=O)cc1)NC1CCCC1`: the IC50 is > 40 µM (inactive).

Turning to `O=C1CC(C(=O)Nc2ccc3c(c2)OCO3)n2nc(SCc3ccccc3)nc2N1` (configuration not stated), the IC50 is > 40 µM (inactive).

`O=C(CSc1nnc2c3ccccc3nc(-c3ccco3)n12)N1CCCc2ccccc21`: the IC50 was 3.82 µM.

With `Cc1cc(Nc2cccc(Cl)c2)n2nc(-c3cccnc3)nc2n1`, the IC50 is > 40 µM (inactive).

On to `O=C(c1cc2occc2c(Nc2ccc(F)cc2)n1)N1CCN(c2ccccc2)CC1`, for which the IC50 was > 40 µM (inactive).

On to `CCc1ccc(NC(=O)Cc2nnc3cc(-c4nc(C)no4)ccn23)cc1`, for which the concentration for half-maximal inhibition (IC50) is 12.7 µM.

With `O=C(Cn1c(-c2nc(-c3cccc(F)c3)no2)cccc1=O)NCc1ccco1`, the IC50 was > 40 µM (inactive).

As to `Cc1cc(Cl)ccc1NC(=O)c1cc(-c2ccncc2)n[nH]1`, the IC50 was > 40 µM (inactive).

For the compound `CCOC(=O)c1cc2c(ccn2C)n1CC(=O)NC1CC1`, the IC50 is > 40 µM (inactive).

For the compound `Cc1cc(C)cc(NC(=O)Nc2ccccc2OCc2cc(=O)n3c(ncn3C(C)C)n2)c1`, the IC50 was 14.3 µM.

With `Cc1ccc(Nc2nc(O)c(CC(=O)Nc3ccc(C)cc3C)s2)cc1`, the half-inhibitory concentration (IC50) was 14.6 µM.

In the case of `O=C(CCn1c(=O)c2ccccc2n(CC(=O)OCc2ccccc2)c1=O)NCc1ccc2c(c1)OCO2`, the concentration for half-maximal inhibition (IC50) is 17.5 µM.

Take `Cn1c2ccccc2c(=O)c2c(=O)n(Cc3ccco3)c(-c3ccccc3F)nc21`: the half-inhibitory concentration (IC50) is 8.37 µM.

As for `O=c1[nH]c(C2CCN(S(=O)(=O)c3ccc(S(=O)(=O)NC4CCCCC4)cc3)CC2)nc2c1nnn2Cc1c(F)cccc1Cl`, the IC50 was 16.4 µM.

With `Cc1ccc(Cn2c(=O)c3ncccc3n(CC(=O)NCc3ccc(F)cc3)c2=O)cc1`, the IC50 was 26.1 µM.

As for `O=c1[nH]c(C2CCN(S(=O)(=O)c3ccc(S(=O)(=O)NC4CCCCC4)cc3)CC2)nc2c1nnn2Cc1ccc(F)cc1`, the IC50 was 21.9 µM.

`CC1CCc2c(sc(NC(=O)c3cccc(S(C)(=O)=O)c3)c2C(N)=O)C1` (configuration not stated): the IC50 is > 40 µM (inactive).

Regarding `O=C(Nc1cccc([N+](=O)[O-])c1)Nc1ccc2snnc2c1`, the IC50 is > 40 µM (inactive).

Turning to `COc1cccc2cc(-c3nnc(SCC(=O)c4ccc(F)cc4)n3C)oc12`, the IC50 is > 40 µM (inactive).

As for `C=C1C=C(CCC(=O)O)C(=O)OC1/C=C/C=C/C` (configuration not stated), the IC50 is 3.91 µM.

On to `COC(=O)c1cc2c(ccn2-c2ccc(F)cc2)n1CC(=O)NC1CCCCC1`, for which the IC50 is > 40 µM (inactive).

As for `CCc1cccc(C)c1NC(=O)Cn1nc2ccc(C(=O)NCc3ccccc3)cn2c1=O`, the 50% inhibitory concentration (IC50) is 29.3 µM.

Take `COc1ccc(-c2cc(-c3ccccc3)nc(SCC(N)=O)c2C#N)cc1OC`: the IC50 was 21.6 µM.

For the compound `COc1ccccc1-c1noc(CCCC(=O)Nc2ccccc2)n1`, the IC50 was > 40 µM (inactive).

For the compound `COCCCN1CCS(=O)(=O)c2c(Cl)c(F)nc(Oc3ccccc3F)c21`, the IC50 was > 40 µM (inactive).

On to `COc1ccccc1CNC(=O)CCCCn1c(=O)c2ccccc2n(Cc2ccc(C)cc2)c1=O`, for which the concentration for half-maximal inhibition (IC50) is 20.8 µM.

As for `O=C(NCc1ccco1)c1ccc(Cn2c(SCc3ccccc3)nc3ccncc32)cc1`, the IC50 is > 40 µM (inactive).

For `CCc1ccc([C@@H]2c3c(C)nn(C)c3NC(=O)[C@H]2NC(=O)c2ccc(OC)c(OC)c2)cc1`, the IC50 is > 40 µM (inactive).

In the case of `Cc1cc(NS(=O)(=O)c2ccc(NC(=O)c3ccc(N4CCCC4)c([N+](=O)[O-])c3)cc2)no1`, the half-maximal inhibitory concentration (IC50) is 34.8 µM.

Take `CC(C)(C)c1ccc(C2CC(=O)C3=C(C2)Nc2ccccc2N(C(=O)CCC(=O)O)C3c2cccc([N+](=O)[O-])c2)cc1` (configuration not stated): the IC50 was > 40 µM (inactive).

Consider `CCn1cc2c(n1)c(=O)n(Cc1ccccc1)c(=O)n2CC(=O)Nc1ccc(C(C)C)cc1`, for which the half-maximal inhibitory concentration (IC50) is 15 µM.

For `O=C(c1ccc2c(c1)OCO2)[C@@H]1[C@H](C(=O)OC(c2ccccc2)c2ccccc2)N2c3ccccc3C=CC2[C@@]12C(=O)Nc1ccccc12` (some centres not stated), the IC50 was > 40 µM (inactive).

With `CCCc1cc(=O)n2[nH]c(COc3ccccc3)c(-c3ccccc3)c2n1`, the concentration for half-maximal inhibition (IC50) is 14 µM.

For the compound `Cc1ccc2nc(CNc3ccc(F)cc3C)cc(=O)n2c1`, the IC50 is > 40 µM (inactive).

`CSc1nc(N)c2c(n1)N[C@H]1OC[C@H](O)[C@H](O)[C@H]1N2`: the IC50 is > 40 µM (inactive).

On to `Cc1c(C(=O)Nc2ccc(Oc3ccccc3)cc2)nnn1-c1cccc(Cl)c1`, for which the IC50 is > 40 µM (inactive).

Turning to `CCOc1ncccc1C(=O)Nc1ccnn1Cc1ccccc1`, the IC50 is > 40 µM (inactive).

With `COc1ccccc1CN1CCC(c2cc(=O)[nH]c(-c3cccnc3)n2)CC1`, the IC50 was > 40 µM (inactive).

For the compound `O=C(Nc1cccc(Cl)c1)c1ncn2c1CNS(=O)(=O)c1ccccc1-2`, the concentration for half-maximal inhibition (IC50) is 19.1 µM.

In the case of `CCc1nc(SCC(=O)Nc2ccc(Cl)c(Cl)c2)c2oc3ccccc3c2n1`, the half-maximal inhibitory concentration (IC50) was 39.4 µM.

As for `COc1cccc(C(=O)Nc2ccc(SC(C(=O)Nc3ccccc3)c3ccccc3)cc2)c1` (configuration not stated), the IC50 is > 40 µM (inactive).

For the compound `CC1NC(=O)C(CC(N)=O)NC(=O)C(C(C)O)NC(=O)C(Cc2ccc(O)cc2)NC(=O)C(C(C)C)NC(=O)C(NC(=O)CC(O)CCCCCCCCCCCCN=C(N)N)C(C)OC1=O` (configuration not stated) ({Pentadecanoyl(3ξ-OH,15-Gua)}-TVYTNA; ester 1-C; configuration not given here), the IC50 was > 40 µM (inactive).

On to `O=C(COc1ccc(C2CCCCC2)cc1)Nc1ccc(-c2nn3cnnc3s2)cc1`, for which the IC50 was > 40 µM (inactive).

For the compound `Cc1ccc(Cn2cc(-c3noc(C(=O)Nc4cc(F)ccc4F)n3)nn2)cc1`, the IC50 was 26.8 µM.

As for `Cc1ccc(C(=O)c2cn(CC(=O)Nc3ccc4c(c3)OCO4)c3ccccc3c2=O)cc1`, the IC50 was 16.4 µM.

Turning to `COc1ccc(OC)c(NC(=O)c2cc(Cl)ccc2OC)c1`, the IC50 was > 40 µM (inactive).

Turning to `O=C(CC1C(=O)Nc2nc(-c3ccccc3)nn21)Nc1cccc2ccccc12` (configuration not stated), the half-inhibitory concentration (IC50) was 13.3 µM.

For `COc1ccc(S(=O)(=O)N2CCc3ccccc32)cc1C(=O)Nc1ccc2[nH]c(=O)[nH]c2c1`, the IC50 was 24.2 µM.

As to `CC(C)CC(NC(=O)c1ccc(Cl)cc1Cl)c1nc2ccccc2[nH]1` (configuration not stated), the IC50 is > 40 µM (inactive).

As for `COc1ccc(NC(=O)CC(=O)c2ccc([N+](=O)[O-])cc2)cc1S(=O)(=O)Nc1ccc(Cl)cc1`, the half-inhibitory concentration (IC50) is 25.8 µM.

With `O=C(Cn1c(COc2ccccc2)nc2ccccc21)Nc1cc(Cl)ccc1Cl`, the IC50 is > 40 µM (inactive).

Consider `Cc1cccc(COc2ccc(C3SCC(=O)Nc4n[nH]c(C)c43)cc2)c1` (configuration not stated), for which the IC50 was > 40 µM (inactive).

For the compound `O=C(Cn1cnc(-c2noc(-c3ccc(F)cc3)n2)c1)Nc1ccccc1F`, the IC50 is > 40 µM (inactive).

Turning to `Cn1cc2cccc(NC(=O)c3ccc(F)cc3)c2n1`, the IC50 is > 40 µM (inactive).

Consider `C=C/C(C)=C/[C@@]1(C)SC(=O)C(C)=C1O`, for which the IC50 is 10.4 µM.

As to `Cc1ccc(-c2cc(C(F)F)n3ncc(C(=O)Nc4ccc(O)cc4)c3n2)cc1`, the IC50 was 14.4 µM.

On to `O=C(Nc1ccc(F)cc1F)c1cc(-c2ccccn2)n[nH]1`, for which the IC50 was > 40 µM (inactive).

Turning to `Cc1cccc(N2C(=O)/C(=C\c3ccc4c(c3)OCCO4)c3ccccc3C2=O)c1`, the IC50 was > 40 µM (inactive).

`NC(=O)C1(N2CCCCC2)CCN(c2ncc3c(=O)n(-c4ccccc4)c(=O)[nH]c3n2)CC1`: the IC50 is > 40 µM (inactive).

On to `Cc1ccccc1-c1noc(-c2ccccc2OCC(=O)NC(C)C)n1`, for which the IC50 is > 40 µM (inactive).

As to `Cc1sc(NC(=O)Cn2nnc3ccccc32)nc1-c1ccc2c(c1)CCN2C(=O)c1ccccc1F`, the concentration for half-maximal inhibition (IC50) is 16.3 µM.

With `CC(C)CC1NC(=O)C2CCCN2C1=O` (configuration not stated), the IC50 was > 40 µM (inactive).

Regarding `CC1CCCN(S(=O)(=O)c2ccc(-n3cnc(C(=O)NC4CC4)c3)nc2)C1` (configuration not stated), the IC50 was 23.2 µM.

For the compound `NC(=O)c1ccccc1NC(=O)COc1ccc2c(c1)oc(=O)c1ccccc12`, the 50% inhibitory concentration (IC50) was 5.75 µM.

Take `CCOc1ccc(-n2c(SCC(=O)Nc3ccc(C)cc3)nnc2-c2c[nH]c3ccccc23)cc1`: the 50% inhibitory concentration (IC50) was 8.92 µM.

As to `O=C(/C=C/c1ccc(F)cc1)N1CCc2ccccc2C1`, the IC50 is > 40 µM (inactive).

Take `O=C(NCc1ccccc1)Nc1cccc2ccccc12`: the IC50 was > 40 µM (inactive).

For the compound `O=[N+]([O-])c1ccc2c(c1)nc1n2CCN(Cc2ccco2)C1`, the IC50 was > 40 µM (inactive).

Take `COc1ccc(CCNC(=O)Cn2c(=O)n(-c3ccc(CC(=O)NCCc4ccccc4)cc3)c(=O)c3ccccc32)cc1OC`: the IC50 was > 40 µM (inactive).

As for `Cc1c(-c2nsc(NC(=O)c3ccc(Cl)cc3)n2)nnn1-c1ccccc1F`, the IC50 was 15.7 µM.

Turning to `CC(C)c1nnc(NC(=O)C2CC(=O)N(CCc3ccc(F)cc3)C2)s1` (configuration not stated), the IC50 was > 40 µM (inactive).

As for `CC(=O)Nc1ccc(Cc2nc(-c3ccc4c(c3)nc(C)c(=O)n4C3CCCC3)no2)cc1`, the IC50 was > 40 µM (inactive).

On to `COc1cccc2cc(C(=O)Nc3nc(-c4ccncc4)cs3)oc12`, for which the IC50 was 9.63 µM.

In the case of `O=C(c1cnc2[nH][nH]c(=O)c2c1)c1cc(Cl)cc(Cl)c1O`, the IC50 was 5.78 µM.
